Laboratory results: patent US10633379B2, “Bromodomain inhibitors” (AbbVie Inc., priority 2016, dated 2020)

Experiments:
BRD4 (BDI_K57-E168) = BRD4 (BDI_K57-E168) (Homo sapiens (Human), UniProt O60885); assay: TR-FRET bromodomain binding assay, BRD4 BDI; conditions: mean Ki, calculated from IC50, probe Kd and probe concentration
Method: (§1) A time-resolved fluorescence resonance energy transfer (TR-FRET) assay was used to determine the affinities of compounds of the Examples listed in Table 1 for each bromodomain of BRD4. His-tagged first (BDI: amino acids K57-E168) and second (BDII: amino acids E352-M457) bromodomains of BRD4 were expressed and purified. An Alexa647-labeled BET-inhibitor was used as the fluorescent probe in the assay.
(§2) Compound dilution series were prepared in DMSO via an approximately 3-fold serial dilution. Compound dilutions were added directly into white, low-volume assay plates (Perkin Elmer Proxiplate 384 Plus#6008280) using a Labcyte Echo in conjunction with Labcyte Access and Thermo Multidrop CombinL robotics. Compounds were then suspended in eight microliters (μL) of assay buffer (20 mM Sodium Phosphate, pH 6.0, 50 mM NaCl, 1 mM Ethylenediaminetetraacetic acid disodium salt dihydrate, 0.01% Triton X-100, 1 mM DL-Dithiothreitol) containing His-tagged bromodomain, Europium-conjugated anti-His antibody (Invitrogen PV5596) and Alexa-647-conjugated probe.
(§3) The final concentration of 1× assay mixture contained 2% DMSO, 12 nM His tagged BRD4 (BDI_K57-E168) and 100 nM probe or 4 nM His tagged BRD4 (BDII_E352-M457) and 30 nM probe, and 1 nM Europium-conjugated anti-His-tag antibody, and compound concentrations in the range of: 49.02 μM-0.61 nM or 0.98 μM-0.15 nM.
(§4) After a one-hour equilibration at room temperature, TR-FRET ratios were determined using an Envision multilabel plate reader (Ex 340, Em 495/520).
(§5) TR-FRET data were normalized to the means of 24 no-compound controls (“high”) and 8 controls containing 1 μM un-labeled probe (“low”). Percent inhibition was plotted as a function of compound concentration and the data were fit with the 4 parameter logistic equation to obtain IC50s. Inhibition constants (Ki) were calculated from the IC50s, probe Kd and probe concentration.

BRD4 (BDII_E352-M457) = BRD4 (BDII_E352-M457) (Homo sapiens (Human), UniProt O60885); assay: TR-FRET bromodomain binding assay, BRD4 BDII; conditions: mean Ki, calculated from IC50, probe Kd and probe concentration
Method: as §1, §2, §3, §4, §5

| Compound | Ki (BRD4 (BDI_K57-E168)) | Ki (BRD4 (BDII_E352-M457)) |
| --- | --- | --- |
| CCNC(=O)c1cc2c(-c3cc(C(C)(O)C(C)CC)cnc3Oc3c(C)cccc3C)cn(C)c(=O)c2[nH]1 (centres unmarked) [Example 20, 4-[2-(2,6-dimethylphenoxy)-5-(2-hydroxy-3-methylpentan-2-yl)pyridin-3-yl]-N-ethyl-6-methyl-7-oxo-6,7-dihydro-1H-pyrrolo[2,3-c]pyridine-2-carboxamide] | 363 nM | 3.1 nM |
| CCNC(=O)c1cc2c(-c3cc(C(C)(O)CCc4ccccc4)cnc3Oc3c(C)cccc3C)cn(C)c(=O)c2[nH]1 (centres unmarked) [Example 21, 4-[2-(2,6-dimethylphenoxy)-5-(2-hydroxy-4-phenylbutan-2-yl)pyridin-3-yl]-N-ethyl-6-methyl-7-oxo-6,7-dihydro-1H-pyrrolo[2,3-c]pyridine-2-carboxamide] | 521 nM | 1.5 nM |
| CCNC(=O)c1cc2c(-c3cc(C(C)(O)Cc4ccc(F)cc4)cnc3Oc3c(C)cccc3C)cn(C)c(=O)c2[nH]1 (centres unmarked) [Example 22, 4-{2-(2,6-dimethylphenoxy)-5-[1-(4-fluorophenyl)-2-hydroxypropan-2-yl]pyridin-3-yl}-N-ethyl-6-methyl-7-oxo-6,7-dihydro-1H-pyrrolo[2,3-c]pyridine-2-carboxamide] | 2500 nM | 10.5 nM |
| CCNC(=O)c1cc2c(-c3cc(C(O)(c4ccc(F)cc4)C4CC4)cnc3Oc3c(C)cccc3C)cn(C)c(=O)c2[nH]1 (centres unmarked) [Example 23, 4-{5-[cyclopropyl (4-fluorophenyl)hydroxymethyl]-2-(2,6-dimethylphenoxy)pyridin-3-yl}-N-ethyl-6-methyl-7-oxo-6,7-dihydro-1H-pyrrolo[2,3-c]pyridine-2-carboxamide] | 701 nM | 3.2 nM |
| CCNC(=O)c1cc2c(-c3cc(C(C)(C)O)ccc3Oc3c(C)cccc3C(F)(F)F)cn(C)c(=O)c2[nH]1 [Example 28, N-ethyl-4-{5-(2-hydroxypropan-2-yl)-2-[2-methyl-6-(trifluoromethyl)phenoxy]phenyl}-6-methyl-7-oxo-6,7-dihydro-1H-pyrrolo[2,3-c]pyridine-2-carboxamide] | 1180 nM | 5.4 nM |
| CCNC(=O)c1cc2c(-c3cc(C(C)(C)O)cnc3Oc3c(C)cccc3Cl)cn(C)c(=O)c2[nH]1 [Example 29, 4-[2-(2-chloro-6-methylphenoxy)-5-(2-hydroxypropan-2-yl)pyridin-3-yl]-N-ethyl-6-methyl-7-oxo-6,7-dihydro-1H-pyrrolo[2,3-c]pyridine-2-carboxamide] | 594 nM | 1.3 nM |

Further lines, results first:

| Ki (BRD4 (BDI_K57-E168)) | Ki (BRD4 (BDII_E352-M457)) | Compound |
| --- | --- | --- |
| 79 nM | 1.7 nM | CCNC(=O)c1cc2c(-c3cc(C(O)(C4CCCC4)C4CC4)cnc3Oc3c(C)cccc3C)cn(C)c(=O)c2[nH]1 (centres unmarked) [Example 24, 4-{5-[cyclopentyl(cyclopropyl)hydroxymethyl]-2-(2,6-dimethylphenoxy)pyridin-3-yl}-N-ethyl-6-methyl-7-oxo-6,7-dihydro-1H-pyrrolo[2,3-c]pyridine-2-carboxamide] |
| 171 nM | 3 nM | CCNC(=O)c1cc2c(-c3cc(C(O)(C4CC4)C4CC4)cnc3Oc3c(C)cccc3C)cn(C)c(=O)c2[nH]1 [Example 25, 4-{5-[dicyclopropyl(hydroxy)methyl]-2-(2,6-dimethylphenoxy)pyridin-3-yl}-N-ethyl-6-methyl-7-oxo-6,7-dihydro-1H-pyrrolo[2,3-c]pyridine-2-carboxamide] |
| 15 nM | 1.5 nM | CCNC(=O)c1cc2c(-c3cc(C(O)(C(C)C)C4CC4)cnc3Oc3c(C)cccc3C)cn(C)c(=O)c2[nH]1 (centres unmarked) [Example 26, 4-[5-(1-cyclopropyl-1-hydroxy-2-methylpropyl)-2-(2,6-dimethylphenoxy)pyridin-3-yl]-N-ethyl-6-methyl-7-oxo-6,7-dihydro-1H-pyrrolo[2,3-c]pyridine-2-carboxamide] |
| 44 nM | 1.8 nM | CCNC(=O)c1cc2c(-c3cc(C(O)(C(C)CC)C4CC4)cnc3Oc3c(C)cccc3C)cn(C)c(=O)c2[nH]1 (centres unmarked) [Example 27, 4-[5-(1-cyclopropyl-1-hydroxy-2-methylbutyl)-2-(2,6-dimethylphenoxy)pyridin-3-yl]-N-ethyl-6-methyl-7-oxo-6,7-dihydro-1H-pyrrolo[2,3-c]pyridine-2-carboxamide] |
